PubChem BioAssay (NCI)
Where “and” joins values, the source holds several entries; their conditions need not be identical. Equal entries are not always repeated.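 A five-concentration, 48-hour dose response in 96-well plates underlies each endpoint, interpolated linearly between surrounding concentrations. At the GI50, growth is halved. TGI marks complete inhibition of growth.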

Test system: MDA-MB-468 breast
Assay: DTP human tumour cell line panel, 48 h

COc1cc(/C=C\c2cccnc2Nc2ccccc2)cc(OC)c1OC
GI50: 6770 nM
TGI: 48.7 µM

CC(C)(C)c1ccc(S(=O)(=O)N[C@H]2CC[C@H]3[C@@H]4CCc5cc(O)ccc5[C@H]4CC[C@]23C)cc1
GI50: 2740 nM
TGI: 9.6 µM

O=c1[nH]c2cc(O)ccc2n2cc3c(F)cccc3c12
GI50: 1360 nM
TGI: > 100 µM

O=[N+]([O-])c1cccc(-c2ncc(-c3ccc(Cl)cc3Cl)[nH]2)c1
GI50: 1630 nM
TGI: 3.54 µM

CCCCCCCCCCCCCCCCCC1=NC(C)(C)CN1CCO
GI50: 1590 nM
TGI: 3.04 µM

Cc1cnc2[nH]c(-c3ccccc3)cc(=O)c2c1
GI50: 24600 nM
TGI: > 100 µM

O=c1[nH]c(-c2ccccn2)nc2sc3c(c12)CCCCCC3
GI50: 1660 nM
TGI: > 100 µM

C#Cc1ccc(-n2c(/C=C/c3cc(OC)c(OC)c(OC)c3)nc3ncccc3c2=O)cc1
GI50: 2830 nM
TGI: > 100 µM

O=C(Nc1ccccc1)Nc1ccccc1CNc1nc(Nc2ccc(OCCN3CCCC3)cc2)ncc1Cl
GI50: 1960 nM
TGI: 9.4 µM

C[C@H](NC(=O)CCC(F)(F)F)C(=O)N[C@@H]1C(=O)N(CCO)c2ncccc2-c2ccccc21
GI50: > 100000 nM
TGI: > 100 µM

C=CC[PH+](c1ccccc1)c1ccccc1.C=CC[PH+](c1ccccc1)c1ccccc1.[Cl][Pt][Cl]
GI50: 2640 nM
TGI: 7.1 µM

COc1ccc(-n2nc(C)c3c2N(C)C2(C)C[C@@H]4C3(C)[C@@H]3CC4(C2)N(C)c2c(c(C)nn2-c2ccc(OC)cc2)[C@H]3C)cc1 (stereo partly drawn)
GI50: 4760 nM
TGI: 64.8 µM

Cc1cc(N)c2ccccc2[n+]1CCCCCCCCCC[n+]1c(C)cc(N)c2ccccc21
GI50: 64.7 nM
TGI: 0.245 µM

CCN(CC)CCOc1ccc(C2=C(c3ccccc3)CCc3cc(OC)ccc32)cc1
GI50: 138 nM
TGI: 0.418 µM

Cn1c(COC(=O)NCCN2CCOCC2)nc2c(N3CCOCC3)nc(-c3ccccc3)nc21
GI50: 1140 nM
TGI: 2.95 µM

C=C(C)[C@@H]1CCC[C@]2(C(=O)O)CC[C@]3(C)[C@@H](CC[C@@H]4[C@@]5(C)C/C(=C/c6ccncc6)C(=O)C(C)(C)[C@@H]5CC[C@]43C)[C@@H]12
GI50: 2100 nM
TGI: 5.49 µM

CCCCCCN(CCCCCC)CC(O)c1cccc2ccc(Cl)cc12 (stereo not drawn)
GI50: 3190 nM
TGI: 14.6 µM

C#Cc1cccc(Nc2ncnc3ccc(-c4cncc(NS(C)(=O)=O)c4)cc23)c1
GI50: 208 nM
TGI: 0.731 µM

Cn1cc(-c2nn3cc(-c4cccs4)nc3s2)c2cc(F)ccc21
GI50: 1440 nM
TGI: 5.47 µM

COc1ccc(N=C2NN=C(c3c[nH]c4ccccc34)CS2)cc1OC
GI50: 14600 nM
TGI: > 60.5 µM

C#Cc1nc(C2=C(C)C(O)/C(=N/O)C2)cs1 (stereo not drawn)
GI50: 17600 nM
TGI: > 100 µM

CCNC(=O)Oc1ccc(/C(=C(\C)c2ccc(Cl)cc2)c2ccc(OCCN3CCCCC3)cc2)cc1
GI50: 2660 nM
TGI: 9.5 µM

C[C@]12CC[C@@H]3c4ccc(O)cc4CC[C@H]3[C@@H]1CC[C@@H]2NS(=O)(=O)c1ccc(-c2ccccc2)cc1
GI50: 2960 nM
TGI: 38.8 µM

COc1cc(C(=O)N/N=C/c2cccc([N+](=O)[O-])c2)cc(OC)c1OC
GI50: 2770 nM
TGI: 14 µM

COc1cc(OC)c(/C=C/S(=O)(=O)Cc2ccc(OC)c(NCC(=O)O)c2)c(OC)c1
GI50: 121 nM and 187 nM
TGI: > 100 µM

CCCCCCCCCCCCNC(=O)[C@H]1CSC(c2ccc(OC)c(F)c2)N1 (stereo partly drawn)
GI50: 1280 nM
TGI: 2.82 µM

CC(=O)N[C@@H]1CCC[C@H](C(=O)Nc2cc(-c3cnn4c3CC(C)(C)C4)c(Cl)cn2)C1
GI50: < 10 nM
TGI: 0.049 µM

O=c1c2cc(F)ccc2sc2c(NCCCN3CCCC3)nc3ccccc3c12
GI50: 1170 nM
TGI: 2.67 µM

CC1(C)CC2(C)OC2C2(C1)N=NC(=Nc1ccccc1)O2 (stereo not drawn)
GI50: 2470 nM
TGI: 7.28 µM

COC(=O)Nc1nc2ccc(Sc3ccc(NC(=O)Nc4cc(C(F)(F)F)ccc4F)cc3)cc2[nH]1
GI50: 882 nM
TGI: 4.75 µM

CCCCCCN1C(=O)CN=C1Nc1ccc2cc3ccc(NC4=NCC(=O)N4CCCCCC)cc3nc2c1
GI50: 1640 nM
TGI: 3.4 µM

CC(C)n1nc(C#Cc2cccc(NC(=O)c3cccc(C(F)(F)F)c3)c2)c2c(N)ncnc21
GI50: 4540 nM
TGI: 28.4 µM

N#Cc1ccc(N2Cc3cc(Cl)ccc3OC3=C2C(=O)N(Cc2ccccc2)C3=O)cc1
GI50: 1220 nM
TGI: 3.26 µM

COc1cc(OC)cc(N2CCN(C(=O)Nc3nc4cc(F)ccc4nc3OC)CC2)c1
GI50: 28.3 nM
TGI: 65.1 µM

CN(C)c1ccc(Sc2ccc3nc(N)nc(N)c3c2)cc1
GI50: 909 nM
TGI: 2.65 µM

Cc1csc(Nc2nc(-c3cccc(Cl)c3)nc(C(Cl)(Cl)Cl)n2)n1
GI50: 728 nM
TGI: 2.18 µM

COc1ccc(S(=O)(=O)NCCNc2nccc(-c3c(-c4ccccc4)nc4sccn34)n2)cc1
GI50: 3030 nM
TGI: > 100 µM

CC(C)(C)c1cc(C(=O)Nc2cc3ccccc3cc2C(=O)NCCN)cc(C(C)(C)C)c1
GI50: 347 nM
TGI: 0.989 µM

COc1ncnc2c(-c3ccco3)cn(COCc3ccccc3)c12
GI50: 2400 nM
TGI: > 50 µM

CC(=O)Nc1ccc(-n2cnc3cc(-c4ccc(OCCN5CCCCC5)cc4)ccc32)cc1
GI50: 5640 nM
TGI: 14.1 µM

Cc1ccc(OCCCCCCNCCO)c(C)c1
GI50: 8480 nM
TGI: 23.6 µM

CC(C)C[C@H](NC(=O)[C@@H](O)[C@H](N)Cc1ccccc1)C(=O)O
GI50: 53400 nM
TGI: > 100 µM

COc1ccc(N(Cc2cc(OC)c(OC)c(OC)c2)C2OC(=O)c3ccccc32)cc1 (stereo not drawn)
GI50: 328 nM
TGI: > 100 µM

CCOc1cccnc1/C=N/NC(N)=S
GI50: 2540 nM
TGI: 13.3 µM
